What was measured:
MCF7 = experiment: Anticancer activity against human MCF7 assessed as inhibition of cell growth by MTT assay; format: functional, cell-based
MDA-MB-231 = experiment: Anticancer activity against human MDA-MB-231 assessed as inhibition of cell growth by MTT assay; format: functional, cell-based
HEK293 = experiment: Cytotoxicity against human HEK293 assessed as inhibition of cell growth; format: cell-based

Row | Structure (SMILES) | IC50 (MCF7) [µM] | IC50 (MDA-MB-231) [µM] | Activity (HEK293)
1 | CC(C)CCc1c(Oc2cc(=O)oc3cc(O)ccc23)ccc2ccc(=O)oc12 | > 50 | > 50 | –
2 | CC(C)CCc1c(O)ccc2cc(-c3ccc(OC(F)(F)F)cc3)c(=O)oc12 | 5.7 | 7.42 | –
3 | COc1ccc(-c2cc3ccc(OC)c(CCC(C)C)c3oc2=O)cc1OC | 51.6 | > 50 | –
4 | COc1ccc2cc(-c3ccc(C)cc3)c(=O)oc2c1CCC(C)C | 50.2 | > 50 | –
5 | COc1ccc2cc(-c3cccnc3)c(=O)oc2c1CCC(C)C | > 50 | > 50 | –
6 | COc1ccc2cc(-c3ccc(Cl)cc3)c(=O)oc2c1CCC(C)C | 1.27 | 5.23 | Non-toxic
7 | CC(C)CCc1c(O)ccc2cc(-c3ccc(C(F)(F)F)cc3)c(=O)oc12 | 42.9 | > 50 | –
8 | COc1ccc2ccc(=O)oc2c1CCC(C)C | 47 | > 50 | –
9 | CC(C)CCc1c(O)ccc2ccc(=O)oc12 | > 50 | > 50 | –
10 | COc1ccc2cc(-c3ccc(OC(F)(F)F)cc3)c(=O)oc2c1CCC(C)C | 0.24 | 0.31 | Non-toxic
11 | COc1ccc2ccc(=O)oc2c1CC=C(C)C [OSTHOLE] | 25.8 | 30.2 | –
12 | COc1ccc2cc(-c3ccc(F)c(F)c3)c(=O)oc2c1CCC(C)C | 27.3 | 33.6 | –
13 | COc1ccc2c(Oc3ccc4cc(-c5ccc(C(F)(F)F)cc5)c(=O)oc4c3CCC(C)C)cc(=O)oc2c1 | 45.9 | > 50 | –
14 | COc1ccc2cc(-c3ccc(F)cc3)c(=O)oc2c1CCC(C)C | 52.6 | > 50 | –
15 | COc1ccc2c(Oc3ccc4ccc(=O)oc4c3CCC(C)C)cc(=O)oc2c1 | > 50 | > 50 | –
16 | COc1ccc2cc(-c3ccc(O)cc3)c(=O)oc2c1CCC(C)C | 3.23 | 4.15 | –
17 | COc1ccc2cc(-c3ccc(C(F)(F)F)cc3)c(=O)oc2c1CCC(C)C | 24.5 | 38.1 | –

Source: ChEMBL document CHEMBL1287759, “Discovery of novel osthole derivatives as potential anti-breast cancer treatment” (Bioorg Med Chem Lett, 2010)
